# “And” between values parts separate entries of the source, which are not always exact repeats. Equal entries are not always repeated.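 96-well plates; 48 h exposure; 5 concentrations. Endpoints by linear interpolation between flanking doses. Not reached: highest tested concentration assigned. Abbreviation: GI50, concentration required for 50% inhibition of growth. TGI marks complete inhibition of growth.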
# Key:
# Assay in all cases: NCI anticancer screen, dose series, 48 h
# [1] = system: M14 melanoma
# [2] = system: EKVX NSCLC
# [3] = system: OVCAR-4 ovarian
# [4] = system: HT29 colon
# [5] = system: HCC-2998 colon
# [6] = system: RXF 393 renal
# [7] = system: HL-60(TB) leukemia
# [8] = system: HCT-15 colon
# [9] = system: MCF7 breast
# [10] = system: PC-3 prostate
Compound,TGI [1],TGI [2],TGI [3],TGI [4],TGI [5],TGI [6],TGI [7],TGI [8],GI50 [1],GI50 [2],GI50 [3],GI50 [4],GI50 [9],TGI [9],GI50 [8],GI50 [5],GI50 [10],TGI [10],GI50 [6],GI50 [7]
COC(=O)/C(C#N)=C1\CCC(O)N1 (stereo unspecified),> 100 µM,> 100 µM,> 100 µM,> 100 µM,> 100 µM,> 100 µM,> 100 µM,–,–,–,–,–,–,–,–,–,–,–,–,–
CN(C)C(=S)/N=c1\ss/c(=N\C(=S)N(C)C)n1-c1ccc(Cl)c(Cl)c1,> 100 µM,> 100 µM,> 100 µM,> 100 µM,> 100 µM,> 100 µM,> 100 µM,> 100 µM,–,–,–,–,–,–,–,–,–,–,–,–
COC(=O)/C(C)=C/[N+](=O)[O-],29.2 µM,63.6 µM,33.5 µM,43.2 µM,32.1 µM,35.6 µM,40.1 µM,34.4 µM,–,–,–,–,–,–,–,–,–,–,–,–
CC1=NN(C(=O)CC(=O)N(C(=O)c2ccccc2Cl)c2ccc(C)cc2)C(=O)C1N=Nc1ccc([N+](=O)[O-])cc1 (stereo unspecified),> 100 µM,> 100 µM,> 100 µM,> 100 µM,> 100 µM,77.5 µM,> 68.8 µM,> 63.5 µM,–,–,–,–,–,–,–,–,–,–,–,–
O=C(COc1ccc(/C=C2\CSc3ccccc3C2=O)cc1)Nc1nccs1,21.2 µM,31.1 µM,72.3 µM,16.2 µM,17.1 µM,–,–,14.7 µM,9.38 µM,17.3 µM,18.9 µM,4.48 µM,3.43 µM,10.6 µM,4.03 µM,4.03 µM,3.97 µM,28.9 µM,–,–
C[C@]12CC[C@@H]3c4ccc(O)cc4CC[C@H]3[C@@H]1CC[C@@H]2NS(=O)(=O)c1cccc(F)c1,11.9 µM,–,14.4 µM,10.1 µM,16.9 µM,7.4 µM,–,11.3 µM,3.41 µM,–,2.72 µM,3.2 µM,3.49 µM,11 µM,2.8 µM,5.27 µM,2.96 µM,14 µM,2.42 µM,–
O=S1OC2(c3ccccc3-c3ccccc32)c2ccccc21 (stereo unspecified),> 100 µM,> 100 µM,> 100 µM,> 100 µM,> 100 µM,> 100 µM,> 100 µM,> 100 µM,–,–,–,–,–,–,–,–,–,–,–,–
Nc1nc(CCl)nc(Nc2ccccc2)n1,32.8 µM,–,32.1 µM,27.9 µM,31.7 µM,–,11.2 µM,–,–,–,–,–,–,–,–,–,–,–,–,–
Cc1cc(NS(=O)(=O)c2ccc(Nc3c4ccccc4nc4c(C(=O)NCCN(C)C)cccc34)cc2)no1,> 100 µM,30.1 µM,57.7 µM,> 100 µM,27 µM,22.8 µM,0.472 µM,> 100 µM,–,–,–,–,–,–,–,–,–,–,–,–
CC(C)CCCC(C)[C@H]1CCC2[C@H]3C(CC[C@@]21C)[C@@]1(C)CCC=C[C@]12C[C@@H]2[C@@H]3O (stereo partly specified),> 100 µM,> 100 µM,> 100 µM,> 100 µM,> 100 µM,> 100 µM,> 100 µM,> 100 µM,–,–,–,–,–,–,–,–,–,–,–,–
N.N.N.N.[Cl-].[Co+3].[N-]=[N+]=[N-].[N-]=[N+]=[N-],> 100 µM,> 100 µM,> 100 µM,> 100 µM,> 100 µM,–,> 100 µM,> 100 µM,> 100 µM,> 100 µM,> 100 µM,> 100 µM,–,–,> 100 µM,> 100 µM,–,–,–,74.3 µM
CCCCOC(=O)NC(=O)c1cn(CCCOC(=O)NCCCCCCNC(=O)OCCCn2cc(C(=O)NC(=O)OCCCC)c(=O)[nH]c2=O)c(=O)[nH]c1=O,> 100 µM,> 100 µM,> 100 µM,> 100 µM,> 100 µM,> 100 µM,> 100 µM,> 100 µM,–,–,–,–,–,–,–,–,–,–,–,–
CC1(C)O/C(=C\c2ccccc2)C(=O)/C(=C/c2ccccc2)O1,> 100 µM,> 100 µM,> 100 µM,> 100 µM,–,47.6 µM,29.4 µM,–,–,–,–,–,–,–,–,–,–,–,–,–
CCOC(=N)CC(=O)Nc1cccc(C)c1C,> 100 µM,> 100 µM,> 100 µM,> 100 µM,> 100 µM,> 100 µM,> 100 µM,–,–,–,–,–,–,–,–,–,–,–,–,–
C=CCNC(=O)N(CCC)CCCCC(NC(C)=O)C(=O)NCc1ccccc1 (stereo unspecified),> 100 µM,> 100 µM,> 100 µM,> 100 µM,> 100 µM,> 100 µM,> 100 µM,> 100 µM,–,–,–,–,–,–,–,–,–,–,–,–
O=C(Nc1cc(Cl)ccc1Cl)C(=O)C(c1cnc2ccccc2n1)[N+](=O)[O-] (stereo unspecified),> 100 µM,> 100 µM,> 100 µM,> 100 µM,> 100 µM,> 100 µM,> 100 µM,> 100 µM,–,–,–,–,–,–,–,–,–,–,–,–

Compound,TGI [1],TGI [2],TGI [3],TGI [4],TGI [5],TGI [6],TGI [7],TGI [8],GI50 [1],GI50 [2],GI50 [3],GI50 [4],GI50 [9],TGI [9],GI50 [8],GI50 [5],GI50 [10],TGI [10],GI50 [6],GI50 [7]
Cc1ccc(C2(O)CC(c3ccc([N+](=O)[O-])o3)=NN2C(=O)COc2ccc(Cl)cc2)cc1 (stereo unspecified),17.1 µM,18.8 µM,77.9 µM,> 38.8 µM,16.8 µM,–,–,17.7 µM,–,–,–,–,–,–,–,–,–,–,–,–
CCCCC1(CN2CCOCC2)S/C(=N/c2nc(CC(=O)OCC)cs2)NC1=O (stereo unspecified),67.3 µM,> 100 µM,> 100 µM,> 100 µM,> 100 µM,86.1 µM,62.5 µM,> 100 µM,22.8 µM,38.9 µM,33 µM,40 µM,34.4 µM,> 100 µM,40 µM,35.9 µM,–,–,27.6 µM,30.2 µM
Nc1ccn(C2(CO)C=C(CO)C(O)C2O)c(=O)n1 (stereo unspecified),> 25.8 µM,> 25.8 µM,> 25.8 µM,–,> 25.8 µM,> 25.8 µM,> 25.8 µM,> 25.8 µM,–,–,–,–,–,–,–,–,–,–,–,–
COC(=O)/C(C=O)=C/Sc1ccccc1,42.6 µM,> 100 µM,> 100 µM,81.3 µM,> 100 µM,51.7 µM,> 100 µM,> 100 µM,–,–,–,–,–,–,–,–,–,–,–,–
C[n+]1cc(C(O)c2ccc3c(c2)OCO3)c2ccccc2c1 (stereo unspecified),91.7 µM,> 100 µM,–,> 100 µM,> 100 µM,62.5 µM,–,> 100 µM,–,–,–,–,–,–,–,–,–,–,–,–
CN[C@@H](C)[C@H](NC)c1ccccc1,> 100 µM,> 100 µM,–,> 100 µM,> 100 µM,> 100 µM,> 100 µM,> 100 µM,–,–,–,–,–,–,–,–,–,–,–,–
COc1cccc(-n2c3nc(=O)n(C)c(=O)c-3nc3ccccc32)c1,27.7 µM,82.1 µM,25.2 µM,40.8 µM,38.9 µM,–,28.2 µM,66.3 µM,–,–,–,–,–,–,–,–,–,–,–,–
CC(=O)c1sc(-c2nc(C)c(C(=O)/C=C\c3ccc(/C=C\C(=O)c4sc(-c5nc(C)c(C(C)=O)s5)nc4C)cc3)s2)nc1C,> 100 µM,> 100 µM,> 100 µM,> 100 µM,> 100 µM,> 100 µM,> 100 µM,> 100 µM,–,–,–,–,–,–,–,–,–,–,–,–
C[C@]12CC[C@H](O)C[C@H]1CC[C@@H]1[C@@H]2CC[C@]2(C)[C@@H](C3=CC(=O)OC3)CC[C@]12O,1.6 µM,0.433 µM,0.226 µM,1.6 µM,0.675 µM,0.0681 µM,0.272 µM,0.316 µM,–,–,0.0389 µM,–,–,–,–,–,0.178 µM,3.7 µM,–,0.0391 µM
CC12CCCCC1(C)C2Sc1ccccc1 (stereo unspecified),> 100 µM,> 96.8 µM,> 100 µM,> 100 µM,> 100 µM,> 70.3 µM,36.9 µM,> 100 µM,–,–,–,–,–,–,–,–,–,–,–,–
COC(=O)CCC(=O)CC1CC(=O)C2CCCN12 (stereo unspecified),> 100 µM,> 100 µM,> 100 µM,> 100 µM,> 100 µM,> 100 µM,> 100 µM,–,–,–,–,–,–,–,–,–,–,–,–,–
CC(C)(C=O)CC(C#N)/C(=N\NC(N)=O)C(=O)Nc1ccccc1C(N)=O (stereo unspecified),> 100 µM,> 100 µM,> 100 µM,> 100 µM,> 100 µM,–,> 100 µM,> 100 µM,–,–,–,–,–,–,–,–,–,–,–,–
COc1ccc(C2c3cc(OC)c(OC)cc3C(Cc3ccc([N+](=O)[O-])cc3)C2c2ccc([N+](=O)[O-])cc2)cc1OC (stereo unspecified),> 100 µM,> 100 µM,> 100 µM,> 100 µM,> 100 µM,> 100 µM,> 100 µM,> 100 µM,–,–,–,–,–,–,–,–,–,–,–,–
C=C1C[C@]23CCC4C(C)(C)C(=O)CC[C@]4(C)C2C[C@H]1C(O)C3=O (stereo partly specified),> 75 µM,> 75 µM,> 75 µM,–,–,> 75 µM,> 75 µM,> 75 µM,–,–,–,–,–,–,–,–,–,–,–,–
C[C@@]12CCCc3coc(c31)C(=O)c1cc3c(cc12)C(=O)C=CC3=O,> 1 µM and 29.7 µM,34.1 µM,> 1 µM and 28.9 µM,> 1 µM and 44.9 µM,> 1 µM and 69.7 µM,> 1 µM and 29.1 µM,> 100 µM,> 1 µM and 36.7 µM,> 1 µM,–,> 1 µM,> 1 µM,–,–,> 1 µM,> 1 µM,–,–,> 1 µM,> 1 µM
Cc1cc(C)c(C2[C@H]3C(=O)N(c4ccc(Cc5ccc(N6C(=O)[C@@H]7ON(c8ccccc8)C(c8c(C)cc(C)cc8C)[C@@H]7C6=O)cc5)cc4)C(=O)[C@H]3ON2c2ccccc2)c(C)c1 (stereo partly specified),> 100 µM,> 100 µM,> 100 µM,> 100 µM,> 100 µM,> 100 µM,> 100 µM,> 100 µM,–,–,–,–,–,–,–,–,–,–,–,–

# Source: PubChem BioAssay (NCI)
